Paper PMC6039096 (Science translational medicine, 2017)

Assays:
EZH2 = EZH2 (Homo sapiens, UniProt Q15910); test: biochemical inhibition assay with recombinant EZH2
EZH1 = target: T1, EZH1 (Homo sapiens, UniProt Q92800); test: biochemical inhibition assay with recombinant EZH1
T1 sequence (Q92800 1-747): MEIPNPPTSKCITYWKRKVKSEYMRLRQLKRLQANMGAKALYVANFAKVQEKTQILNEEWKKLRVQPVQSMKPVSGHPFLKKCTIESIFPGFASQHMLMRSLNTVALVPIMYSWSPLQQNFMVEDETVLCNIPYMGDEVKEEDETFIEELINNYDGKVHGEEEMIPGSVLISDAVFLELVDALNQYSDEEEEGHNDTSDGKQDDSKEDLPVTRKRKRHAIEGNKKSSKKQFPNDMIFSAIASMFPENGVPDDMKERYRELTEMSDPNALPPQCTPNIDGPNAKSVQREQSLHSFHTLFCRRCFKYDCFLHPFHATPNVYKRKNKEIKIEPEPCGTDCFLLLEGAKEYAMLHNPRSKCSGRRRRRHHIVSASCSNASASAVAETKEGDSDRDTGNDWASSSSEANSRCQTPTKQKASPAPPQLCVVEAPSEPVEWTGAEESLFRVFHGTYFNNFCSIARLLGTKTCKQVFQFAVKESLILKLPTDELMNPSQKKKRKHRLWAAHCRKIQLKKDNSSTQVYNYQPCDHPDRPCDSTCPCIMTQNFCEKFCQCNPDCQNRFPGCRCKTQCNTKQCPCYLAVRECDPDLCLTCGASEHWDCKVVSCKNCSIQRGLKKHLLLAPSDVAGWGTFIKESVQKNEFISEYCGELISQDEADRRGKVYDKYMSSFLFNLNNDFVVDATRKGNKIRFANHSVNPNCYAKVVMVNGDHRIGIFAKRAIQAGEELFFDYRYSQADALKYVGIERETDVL

EZH2, sequence (Q15910 whole entry): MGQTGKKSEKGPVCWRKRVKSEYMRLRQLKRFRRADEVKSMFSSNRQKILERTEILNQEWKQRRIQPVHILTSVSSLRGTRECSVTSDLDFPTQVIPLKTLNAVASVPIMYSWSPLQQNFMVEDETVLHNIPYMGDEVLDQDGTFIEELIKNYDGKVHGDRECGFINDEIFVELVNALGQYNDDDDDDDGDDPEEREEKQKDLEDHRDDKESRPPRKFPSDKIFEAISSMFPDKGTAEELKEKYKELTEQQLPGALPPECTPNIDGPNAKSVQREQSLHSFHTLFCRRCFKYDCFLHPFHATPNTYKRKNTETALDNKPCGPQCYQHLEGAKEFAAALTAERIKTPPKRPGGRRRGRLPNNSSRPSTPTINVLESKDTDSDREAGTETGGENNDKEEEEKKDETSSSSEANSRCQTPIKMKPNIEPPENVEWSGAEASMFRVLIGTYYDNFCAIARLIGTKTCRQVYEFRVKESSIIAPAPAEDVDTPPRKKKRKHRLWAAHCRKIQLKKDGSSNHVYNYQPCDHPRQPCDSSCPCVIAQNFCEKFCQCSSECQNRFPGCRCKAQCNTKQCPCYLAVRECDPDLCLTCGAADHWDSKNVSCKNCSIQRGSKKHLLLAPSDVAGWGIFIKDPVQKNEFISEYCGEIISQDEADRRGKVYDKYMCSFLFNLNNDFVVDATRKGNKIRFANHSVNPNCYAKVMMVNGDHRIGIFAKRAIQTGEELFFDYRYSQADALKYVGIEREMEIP

Ki (EZH2): 2.2 nM | Ki (EZH1): 26.5 nM
SMILES: CCCc1cc(C)[nH]c(=O)c1CNC(=O)c1cc(-c2ccc(N3CCN(C)CC3)nc2)nc2c1cnn2C(C)C [JQ-EZ-05]
